In ChEMBL document CHEMBL3046963, “Fungicidal Activity of 2-Aminochromone-3-carboxamides” (1990):
≈ marks a conversion by molar mass, not a printed value.

Experiments:
Format in all cases: functional
[1] = test system: Rhizoctonia solani; test: In vivo fungicidal activity against Rhizoctonia solani in rice seedlings assessed as control of sheath blight disease at 500 ppm by curative foliar treatment
[2] = test system: Bipolaris oryzae; test: Fungicidal activity against Bipolaris oryzae by agar dilution method
[3] = test system: Nakataea oryzae; test: Fungicidal activity against Magnaporthe salvinii by agar dilution method
[4] = test system: Pyricularia oryzae; test: Fungicidal activity against Magnaporthe oryzae by agar dilution method
[5] = test system: Rhizoctonia solani; test: Fungicidal activity against Rhizoctonia solani by agar dilution method
[6] = test system: Fusarium fujikuroi; test: Fungicidal activity against Fusarium fujikuroi by agar dilution method
[7] = test system: Pyricularia oryzae; test: Fungicidal activity against Magnaporthe oryzae in rice seedlings assessed as control of rice blast at 500 ppm by preventive foliar treatment
[8] = test system: Pyricularia oryzae; test: Fungicidal activity against Magnaporthe oryzae in rice seedlings assessed as control of rice blast at 500 ppm by curative foliar treatment
[9] = test system: Fusarium fujikuroi; test: Fungicidal activity against Fusarium fujikuroi assessed as infected rice seedlings in seed disinfection against bakanae disease at 1000 ppm by soaking method
[10] = test system: Rhizoctonia solani; test: In vivo fungicidal activity against Rhizoctonia solani in rice seedlings assessed as control of sheath blight disease at 250 ppm by curative foliar treatment

SMILES	Activity [1]	MIC [2]	MIC [3]	MIC [4]	MIC [5]	MIC [6]	Activity [7]	Activity [8]	Activity [9]	Activity [10]
CCCC(C)(C)c1ccc2oc(N)c(C(N)=O)c(=O)c2c1	100%	> 100 µg/mL	6.25 µg/mL (≈ 21.7 µM)	1.56 µg/mL (≈ 5.41 µM)	> 100 µg/mL					
CC(C)(C)c1ccc2oc(N)c(C(N)=O)c(=O)c2c1	100%	6.25 µg/mL (≈ 24 µM)	0.78 µg/mL (≈ 3 µM)	0.78 µg/mL (≈ 3 µM)	0.78 µg/mL (≈ 3 µM)	12.5 µg/mL (≈ 48 µM)	81%	96%	3%	
CCC(C)(C)c1ccc2oc(N)c(C(N)=O)c(=O)c2c1	100%	50 µg/mL (≈ 182 µM)	6.25 µg/mL (≈ 22.8 µM)	3.12 µg/mL (≈ 11.4 µM)	> 100 µg/mL					
CCC(C)(CC)c1ccc2oc(N)c(C(N)=O)c(=O)c2c1	100%	> 100 µg/mL	3.12 µg/mL (≈ 10.8 µM)	1.56 µg/mL (≈ 5.41 µM)	> 100 µg/mL					
CC(C)C(C)(C)c1ccc2oc(N)c(C(N)=O)c(=O)c2c1	100%	> 100 µg/mL	6.25 µg/mL (≈ 21.7 µM)	3.12 µg/mL (≈ 10.8 µM)	> 100 µg/mL					
NC(=O)c1c(N)oc2ccc(F)cc2c1=O	100%	> 100 µg/mL	25 µg/mL (≈ 113 µM)	25 µg/mL (≈ 113 µM)	12.5 µg/mL (≈ 56.3 µM)					
NC(=O)c1c(N)oc2ccc(Cl)cc2c1=O		> 100 µg/mL	12.5 µg/mL (≈ 52.4 µM)	3.12 µg/mL (≈ 13.1 µM)	6.25 µg/mL (≈ 26.2 µM)					96%
NC(=O)c1c(N)oc2ccc(Br)cc2c1=O	100%	> 100 µg/mL	1.56 µg/mL (≈ 5.51 µM)	1.56 µg/mL (≈ 5.51 µM)	3.12 µg/mL (≈ 11 µM)					
NC(=O)c1c(N)oc2ccc(I)cc2c1=O	100%	12.5 µg/mL (≈ 37.9 µM)	3.12 µg/mL (≈ 9.45 µM)	3.12 µg/mL (≈ 9.45 µM)	12.5 µg/mL (≈ 37.9 µM)					
NC(=O)c1c(N)oc2c(Cl)cc(Cl)cc2c1=O	100%	> 100 µg/mL	> 100 µg/mL	> 100 µg/mL	100 µg/mL (≈ 366 µM)					
NC(=O)c1c(N)oc2c(Br)cc(Br)cc2c1=O	76%	> 100 µg/mL	> 100 µg/mL	> 100 µg/mL	> 100 µg/mL					
O=c1[nH]cnc2oc3ccccc3c(=O)c12	0%	> 100 µg/mL	> 100 µg/mL	> 100 µg/mL	> 100 µg/mL					
CC(=O)Nc1oc2ccccc2c(=O)c1C(N)=O	90%	> 100 µg/mL	100 µg/mL (≈ 406 µM)	50 µg/mL (≈ 203 µM)	25 µg/mL (≈ 102 µM)					
CC(C)(C)c1ccc2oc3nc[nH]c(=O)c3c(=O)c2c1	0%	> 100 µg/mL	> 100 µg/mL	> 100 µg/mL	> 100 µg/mL					
CC(=O)Nc1oc2ccc(C(C)(C)C)cc2c(=O)c1C(N)=O	100%	100 µg/mL (≈ 331 µM)	6.25 µg/mL (≈ 20.7 µM)	3.12 µg/mL (≈ 10.3 µM)	6.25 µg/mL (≈ 20.7 µM)					
CCOC(=O)Nc1oc2ccc(C(C)(C)C)cc2c(=O)c1C(N)=O	100%	> 100 µg/mL	25 µg/mL (≈ 75.2 µM)	25 µg/mL (≈ 75.2 µM)	50 µg/mL (≈ 150 µM)					
CNC(=O)Nc1oc2ccc(C(C)(C)C)cc2c(=O)c1C(N)=O	100%	100 µg/mL (≈ 315 µM)	0.78 µg/mL (≈ 2.46 µM)	0.78 µg/mL (≈ 2.46 µM)	> 100 µg/mL					
CNc1oc2ccc(C(C)(C)C)cc2c(=O)c1C(N)=O	100%	25 µg/mL (≈ 91.1 µM)	1.56 µg/mL (≈ 5.69 µM)	1.56 µg/mL (≈ 5.69 µM)	25 µg/mL (≈ 91.1 µM)					
Cc1oc2ccccc2c(=O)c1C(N)=O	0%	> 100 µg/mL	> 100 µg/mL	> 100 µg/mL	> 100 µg/mL					
N#Cc1c(N)oc2ccccc2c1=O	0%	> 100 µg/mL	> 100 µg/mL	> 100 µg/mL	> 100 µg/mL					
NC(=O)c1c(N)oc2ccccc2c1=O		> 100 µg/mL	12.5 µg/mL (≈ 61.2 µM)	25 µg/mL (≈ 122 µM)	12.5 µg/mL (≈ 61.2 µM)					100%
Cc1ccc2oc(N)c(C(N)=O)c(=O)c2c1		25 µg/mL (≈ 115 µM)	6.25 µg/mL (≈ 28.6 µM)	6.25 µg/mL (≈ 28.6 µM)	6.25 µg/mL (≈ 28.6 µM)					100%
CCc1ccc2oc(N)c(C(N)=O)c(=O)c2c1		25 µg/mL (≈ 108 µM)		0.78 µg/mL (≈ 3.36 µM)	3.25 µg/mL (≈ 14 µM)					90%
CC(C)c1ccc2oc(N)c(C(N)=O)c(=O)c2c1	85%	100 µg/mL (≈ 406 µM)	3.12 µg/mL (≈ 12.7 µM)	1.56 µg/mL (≈ 6.33 µM)	100 µg/mL (≈ 406 µM)	> 100 µg/mL	74%	94%	6%	
CCCCc1ccc2oc(N)c(C(N)=O)c(=O)c2c1	90%	> 100 µg/mL	50 µg/mL (≈ 192 µM)	50 µg/mL (≈ 192 µM)	> 100 µg/mL					
CCC(C)c1ccc2oc(N)c(C(N)=O)c(=O)c2c1 (centres undefined)	79%	25 µg/mL (≈ 96 µM)	0.78 µg/mL (≈ 3 µM)	0.78 µg/mL (≈ 3 µM)	6.25 µg/mL (≈ 24 µM)	> 100 µg/mL	19%	96%	6.5%	
C/C(=N/Nc1nc(C)cc(C)n1)c1ccccc1C [FERIMZONE]	100%	25 µg/mL (≈ 98.3 µM)	1.56 µg/mL (≈ 6.13 µM)	3.12 µg/mL (≈ 12.3 µM)	50 µg/mL (≈ 197 µM)	> 100 µg/mL	99%	100%		
